System: subjects with RRMS
Assay: ALLEGRO sub-study: 1H-MRS, NAA/Cr ratio in WM
Type: in vivo, human
Settings: at 24 months; difference vs placebo not statistically significant (p=0.179), N=27
Method: • 1. Frequent MRI (selected countries and sites only): The cumulative number of T1-Gd enhancing lesions taken from scans obtained at months 0, 3, 6, 12, and 24, and in case the study is be extended, 30. Additional MRIs for the ancillary study are performed at months 3 and 6. • 2. Magnetization Transfer (MT) (selected countries and sites only): the change from baseline to month 12 and 24/30 months in magnetization transfer MRI. MT was assessed at months 0 (baseline), 12 and 24 (termination/early discontinuation). In case of the 6 months extended study, the last MT was performed at month 30 (termination/early discontinuation of the extended study) instead of month 24. • 3. Proton MR Spectroscopy (^1H-MRS) (selected countries and sites only): Change from baseline to 24/30 in ^1H-MRS metabolites. ^1H-MRS was assessed at months 0 (baseline), and 24 (termination/early discontinuation). In case of the 6 months extended study, the last ^1H-MRS was performed at month 30 (termination/early discontinuation of the extended study) instead of month 24. • 4. Pharmacogenetic (PGx) assessment: Blood samples for PGx parameters were collected from all subjects at screening. • 5. […] Changes in NAA/Cr from baseline to month 24 was analyzed using ANCOVA.

CCN(C(=O)c1c(O)c2c(Cl)cccc2n(C)c1=O)c1ccccc1 [Laquinimod]
WM NAA/Cr ratio: tended to increase

From patent publication US20160296511A1, “LAQUINIMOD FOR REDUCING THALAMIC DAMAGE IN MULTIPLE SCLEROSIS” (Teva Pharmaceutical Industries, Ltd., priority 2012, published 2016)
